A word on the inhibition: it is the share of the control response that was lost under treatment.

The experiment concerns the target WT A/M2 protein (Influenza A virus, UniProt P0DOF5). As to the kind of experiment: biochemical. Particulars: read-out: % WT inhibition.

Chain of WT A/M2 protein (P0DOF5 whole entry): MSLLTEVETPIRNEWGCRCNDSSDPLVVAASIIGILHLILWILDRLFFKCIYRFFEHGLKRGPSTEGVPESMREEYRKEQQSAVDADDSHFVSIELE

For the molecule `c1ccc(-c2nc(CNC34CC5CC(CC(C5)C3)C4)cs2)cc1` [26i], the inhibition at 100 µM amounted to 0%.
For `Oc1ccc(NC23CC4CC(CC(C4)C2)C3)c(O)c1` [compound 5], the inhibition at 100 µM is 64%.

The record behind these values is publication PMC4829348 (Journal of medicinal chemistry, 2016).
